Data from US6384077B1, “Highly purified EPA for treatment of schizophrenia and related disorders” (Laxdale Limited, priority 1999, dated 2002).

Tests used:
[1] = tested on: depression; assay: case report: depressed person, Hamilton Depression Rating Scale; format: in vivo, human; conditions: 1 g/day 96% ethyl-EPA, after about 3-4 weeks
From the text: Our attention was unexpectedly drawn to the importance of highly purified EPA by our experience with a patient, a depressed women aged 35 years. […] […] […] They continued the EPA-rich oil for a further two months without any further change. […] As a result of this, and of thinking about the evidence relating to the binding of EPA to FACL-4 and presumably to other proteins, we came to the conclusion that it was important for clinical efficacy to administer EPA in a highly purified form for maximum clinical effectiveness.

[2] = tested on: schizophrenia, drug-induced obesity; format: in vivo, human; conditions: ethyl-EPA in addition to olanzapine, six months
From the text: Obesity is another common side effect of antipsychotropic drugs. In this respect some of the newer drugs like olanzapine frequently seem to be even worse offenders than the typical neuroleptics. […] They preferred the olanzapine but it still left their withdrawn and unable to communicate normally with friends or family. To their distress it caused them to put on over 10 kg in weight. Their doctor decided to test ethyl-EPA in addition to olanzapine.

[3] = tested on: schizophrenia; assay: case history: schizophrenia, E-EPA added to clozapine; format: in vivo, human; conditions: 2 g/day in addition to clozapine 900 mg/day
From the text: This mechanism is thought to be responsible for their rapid effects on the so-called “positive” symptoms of schizophrenia (such as hallucinations, delusions and thought disorder). […] The D2 blocking action is also responsible for many of the adverse effects of these drugs, which include extrapyramidal movement disorders, excess prolactin secretion, and tardive dyskinesias. Examples of widely used drugs in this class include chlorpromazine, thioridazine, haloperidol, pimozide, flupenthixol and sulpiride.
These may include blockade of one or more of the other dopamine receptors such as D1, D3 or D4, and also usually including blockade of one or more classes of serotonin receptors. […] They may also have actions at other receptors, including histamine, glutamate and acetyl choline receptors.
The patient was treated with clozapine, eventually reaching a maximum dose of 900 mg/day.
E-EPA in a dose of 2 g/day was then administered in addition to clozapine.

[4] = tested on: schizophrenic breakdown; conditions: 2 g/day with olanzapine, after about 4 weeks
From the text: In addition to citalopram they were then given 1 g/day of ethyl-EPA. […] Another case was a young person who dropped out of college with a schizophrenic breakdown.

[5] = tested on: schizophrenia; assay: case history: schizophrenia, ethyl-EPA added to haloperidol; format: in vivo, human; conditions: 4 g/day in addition to haloperidol, eight weeks
From the text: A person had become ill with schizophrenia. They had florid hallucinations and paranoia, but also withdrew themself from most of their friendships and lived alone. […] They lived alone, ceased to communicate with most of their friends, and went around to town alone and muttering to […]. Their psychiatrist heard about ethyl-EPA and decided to try it in addition to the standard drug. After eight weeks on treatment with 4 g/day their outlook was transformed. […] They were even persuaded to go on holiday with their family where they enjoyed themself and made new friends. The EPA therefore reversed the extreme withdrawal which appeared to have been exaggerated by haloperidol.

[6] = tested on: patients who had schizophrenia; assay: randomised, placebo-controlled study of ethyl-EPA in clozapine-treated patients with schizophrenia (PANSS, MADRS); format: in vivo, human; conditions: 1 g or 2 g per day versus placebo, 12 weeks
From the text: Although the case reports of the effects of ethyl-EPA are convincing and in some cases dramatic, unequivocal proof of its efficacy must come from randomised, placebo-controlled trials. We therefore set up a randomised, placebo-controlled study of EPA in 34 patients who had schizophrenia according to the criteria set out in the American Psychiatric Association's Diagnostic and Statistical Manual of Mental Disorders (4th edition, DSM-IV). All of these patients were being treated with clozapine drugs but all remained seriously ill, with schizophrenic symptoms. Like many schizophrenics, some of the patients were also depressed. All were assessed at baseline and after 12 weeks using the Positive and Negative Symptom Scale for Schizophrenia (PANSS) and the Montgomery-Asberg Depression Rating Scale (MADRS). After giving informed consent, all the patients were randomised on a double blind basis to one of three groups: placebo, or 1 g or 2 g of ethyl-EPA per day in the form of 0.5 g capsules. Placebo and EPA capsules were indistinguishable from one another in appearance. All the patients improved to some degree so all the changes are percentage improvements

With `CC/C=C\C/C=C\C/C=C\C/C=C\C/C=C\CCCC(=O)OCC` [ethyl-EPA] the Hamilton scores [1] was “below 6”, the withdrawn state [2] was “gradually improved” and the clozapine-induced hypersalivation [3] was “considerably reduced”. For the same compound, the “effect on schizophrenic illness” value [3] was “dramatic within two weeks”, the clarity of thinking [4] was “thinking more clearly” and the residual hallucinations [5] was “residual hallucinations disappeared”. The side effects [6] was “no reported side effects attributable to the E-EPA”.
